The record followed here is US12576083B2, “Combinational therapy of LSD1 inhibitors with P21 activators in the treatment of cancer” (Istituto Europeo di Oncologia S.r.l., priority 2017, dated 2026).

“Also recorded” adds a separate entry of the source.

The subject of experiment [1] is Acute promyelocytic leukemia (APL) NB4 cells. Briefly: NB4 cells treated with MC2580: proliferation, Wright-Giemsa staining, serial replating CFU assay. The class given is cell-based. The note with it: 2 μM, 6 days, DMSO control. On the procedure:
FIGS. 1A-1C. […] (FIG. 1A) Relative proliferation of NB4 APL cells treated with MC2580 ([…]) and RA ([…]) for indicated times (DMSO serves as control). (FIG. 1B) Representative light micrographs show Wright-Giemsa staining of NB4 cell after treatment for 6 days. (DMSO serves as a control). (FIG. 1C) Analysis of the proliferative potential of treated NB4 cells by serial replating assay. (DMSO serves as control). (RA high(h)=retinoic acid, 1 μM, LSD1i=LSD1 inhibitor=MC2580).
Acute promyelocytic leukemia (APL) NB4 cells were treated with 2 μM LSD1 inhibitor MC2580, 1 μM retinoic acid (RA), and DMSO (control) for 6 days. The proliferation of the treated cells were quantified before treatment and during each of the 6 days (FIG. 1A). The treated cells were analyzed under light micrographs using Wright-Giemsa staining (FIG. 1B). The proliferation potential of the treated cells were analyzed by serial replating and Colony-Forming Unit (CFU) Assay (FIG. 1C).

The test system of experiment [2] is p21. Kind of experiment: p21 protein (Western-blot) and p21 gene expression in UF1 cells. The format is cell-based. On the procedure:
FIGS. 6A-6B. LSD1 inhibition leads to further upregulation of P21 RNA and protein level but not in P21KD cells. (FIG. 6A) Immunoblot of P21 in MC2580-treated UF1 cells. […] (SCR=Scramble shRNA, NI=Not Infected, LSD1i=LSD1 inhibitor=MC2580).
UF1 cells were treated with p21-shRNA, scramble shRNA (SCR), LSD1 inhibitor MC2580, p21-shRNA plus MC2580, scramble shRNA (SCR) plus MC2580. Non-infected (NI) UF1 cells were included as control. Immuno-blotting of tubulin was used as loading control.

In a further experiment the test system is Kasumi cells. Kind of experiment: Cell cycle analysis of Kasumi cells. The format is cell-based. Particulars: 1 week treatment. On the procedure:
(§1) Kasumi cells were treated with p21-shRNA, scramble shRNA (SCR), LSD1 inhibitor MC2580, p21-shRNA plus MC2580, scramble shRNA (SCR) plus MC2580. Non-infected (NI) Kasumi cells were included as control. The proliferation of the treated cells were quantified before treatment and post-treatment from day 2, day 4, and day 7 (FIG. 7C). The cells following the 1 week treatment were analyzed under light micrographs using Wright-Giemsa staining (FIG. 7D). Cell cycle analysis were performed following the 1 week treatment.

Experiment [3] deals with p21. Kind of experiment: Western-blot of p21 in Kasumi cells. The class given is cell-based.
Description: FIGS. 7A-7F. […] (FIG. 7C) Relative proliferation of Kasumi cells infected with SCR (control) or p21 shRNA treated with MC2580. (FIG. 7D) Representative light micrograph show Wright-Giemsa staining of Kasumi cells after 1 week treatment with indicated inhibitors. (FIG. 7E) summary of cell-cycle status of Kasumi cells following 1 week treatment with indicated inhibitors. (FIG. 7F) Immunoblot of P21 in MC2580-treated Kasumi cells. (SCR=Scramble shRNA, NI=Not Infected, LSD1i=LSD1 inhibitor=MC2580).
as §1

A further experiment deals with NB4 cells. Kind of experiment: NB4 cells treated with HDAC inhibitors with or without MC2580: proliferation, staining, cell cycle analysis. The format is cell-based. Particulars: versus untreated control cells (Scr-DMSO), 1 week treatment. From the text:
FIGS. 10A-10D. […] (FIG. 10A) Relative proliferation of NB4 cells infected with SCR (control) or p21 shRNA and treated with HDAC inhibitor and/or MC2580. (FIG. 10B and FIG. 10C) Representative light micrograph show Wright-Giemsa staining of NB4 cells infected with SCR (control) or p21 shRNA and treated with HDAC inhibitor and/or MC2580. (FIG. 10D) Summary of cell-cycle status of NB4 cells infected with SCR (control) or p21 shRNA and treated with HDAC inhibitor and/or MC2580. (SCR=Scramble shRNA, NI=Not Infected, LSD1i=LSD1 inhibitor=MC2580).
NB4 cells were treated with HDAC inhibitors, trichostatin A (TSA) and suberoylanilide hydroxamic acid (SAHA), in combination with p21-shRNA or scramble shRNA (SCR), with or without LSD1 inhibitor MC2580. NB4 cells with p21 knock-down without HDAC inhibitor treatment (p21KD-DMSO), NB4 cells without p21 knock-down and without HDAC inhibitor treatment (Scr-DMSO) were included as control. The proliferation of the treated cells were quantified before treatment and post-treatment from day 2, day 4, and day 6 (FIG. 10A). The treated cells were analyzed under light micrographs using Wright-Giemsa staining (FIG. 10B and FIG. 10C). Cell cycle analysis were performed following the 1 week treatment.

Experiment [4] deals with MMC-38B and MMC-34 cells. Kind of experiment: Proliferation of MMC-38B and MMC-34 melanoma cells with shRNA and MC2580. The class given is cell-based, human. Particulars: MMC-38B and MMC-34, 6 days, rescued by p21 knock-down. On the procedure: FIG. 16A depicts relative proliferation of melanoma cells (MMC-38B and MMC-34) that were treated with p21-shRNA (“P21KD-DMSO”), scramble shRNA (“SCR-DMSO”), scramble shRNA plus LSD1 inhibitor MC2580 (“SCR-LSD1i”), or p21-shRNA plus MC2580 (“P21KD-LSD1i”). Data are presented as mean of triplicates±SD.
(§2) MMC-38B and MMC-34 cells were treated with p21-shRNA (“P21KD-DMSO”), scramble shRNA (“SCR-DMSO”), scramble shRNA plus LSD1 inhibitor (MC2580) (“SCR-LSD1i”), or p21-shRNA plus MC2580 (“P21KD-LSD1i”). Tubulin was used as a loading control.

Experiment [5] relates to MMC-38B and MMC-34 cells. Briefly: Cell cycle analysis of MMC-38B and MMC-34 melanoma cells. The format is cell-based, human. Particulars: MMC-38B and MMC-34, rescued by p21 knock-down. On the procedure: FIG. 16B depicts cell-cycle status of melanoma cells analyzed in FIG. 16A.
as §2

`NC1CC1c1ccc(NC(=O)C(Cc2ccccc2)NC(=O)OCc2ccccc2)cc1` (centres unmarked) [MC2580]: the “sensitivity of NB4 cells to LSD1 inhibitor” value in experiment [1] is reported as “resistant to LSD1 inhibition; also recorded: largely insensitive”. Besides, the “p21 gene (CDKN1A) expression in UF1 cells” value in the experiment with p21 [2] is “induces p21 expression; also recorded: expressed at a higher level”. In addition, the “p21 protein level in UF1 cells” value with p21 [2] (Western-blot, tubulin loading control) was “increased”. Besides, in the experiment with Kasumi cells, the “Kasumi cells arrested at the G0/G1 phase” value was “More Kasumi cells were arrested at the G0/G1 phase”. The “p21 protein level in Kasumi cells” value with p21 [3] is recorded as “increased”. Also, the “NB4 cells arrested at the G0/G1 phase, LSD1 inhibitor alone” value with NB4 cells was “More NB4 cells were arrested at the G0/G1 phase”. For the same molecule, the “cell growth of human primary melanoma cells” value in the experiment on MMC-38B and MMC-34 cells [4] is “cell growth inhibition”. For the same molecule, in the experiment with MMC-38B and MMC-34 cells [5], the “cell cycle of human primary melanoma cells” value is given as “cell cycle arrest”.
